Measured values as given in US20230346817A1, “COMPOSITION AND USE OF SGLT-2 INHIBITOR AND ANGIOTENSIN RECEPTOR BLOCKERS” (Beijing Creatron Institute of Pharmaceutical Research Co. …, priority 2020, published 2023).

Assay: Related substances of active ingredient A, samples placed at 50° C. for 10 days
Assay type: physicochemical
Conditions: mixed powders
Method: The raw and auxiliary materials were weighed based on the formulation amount and mixed well. The mixed powder of each example was wrapped separately in a clean weighing paper, sealed in an aluminum foil bag, and placed at 50° C. for 10 days. Samples were then taken, determined for related substances and compared with the comparative example.

Which “Related substances of active ingredient B after placed under the influencing factor” value does the source give for CCOc1ccc(Cc2cc([C@@H]3O[C@H](CO)[C@@H](O)[C@H](O)[C@H]3O)ccc2Cl)cc1 [active ingredient B, Dapagliflozin] here?
The value was “no increase in impurities”.
